Experimental findings from patent US11351102B2, “Plant actives and their anti-pollution effects thereof” (SAMI-SABINSA GROUP LIMITED, priority 2019, dated 2022) are described below.

The test system of assay [1] is Human HaCaT keratinocyte cells. Briefly: Protection against polycyclic aromatic hydrocarbons (BaP) in the presence of UVA, neutral red uptake. Format: cell-based. As to conditions: for % Protection against BaP: individual active, UVA-BaP. From the text:
Polycyclic aromatic hydrocarbons (PAHs) are a class of mutagenic and tumorigenic environmental contaminants. PAHs are widespread in the environment produced from incomplete combustion of natural materials and tobacco smoke (Connell, D. W.; Hawker, D. W.; Warne, M. J.; Vowles. P. P.; Polycyclic aromatic hydrocarbons (PAHs). In Introduction into Environmental Chemistry (McCombs. K., and Starkweather, A. W., eds), 1997, pp. 205-217, CRC Press LLC, Boca Raton, Fla. 2. Shaw, G. R.; Connell, D. W.: Prediction and monitoring of the carcinogenicity of polycyclic aromatic compounds (PACs). Rev. Environ. Contam. Toxic., 1994, 135, 1-62.) PAHs themselves are biologically inert and require metabolic activation. in order to exert genotoxicity PAHs absorb light in the UVA region, react with oxygen or other molecules to generate reactive intermediates (Yu H, Xia Q, Yan J, et al. Photoirradiation of polycyclic aromatic hydrocarbons with UVA light—a pathway leading to the generation of reactive oxygen species, lipid peroxidation, and dna damage. Int J Environ Res Public Health. 2006; 3:348-354) Thus, PAHs can be “activated” by light irradiation to cause photo-induced cytotoxicity. Thus photoirradiation of PAHs with UVA irradiation represents a pollutant which causes cytotoxicity and DNA damage.
Human HaCaT keratinocyte cells were seeded at a density of 1×10^4 cells/well in 96 well plates. Cells were allowed to adhere for overnight. They were pretreated with Benzo(a)pyrene a PAH at 0.5 mM concentration along with different concentrations of plant actives for 50 minutes, exposed to UVA at an intensity of 17 Joules m2. Cells were washed with sterile buffer and fresh culture medium (2% of FBS) with respective concentrations of plant actives were added followed by incubation for 24 hours at 37° C. in a CO2 incubator. Neutral Red (25 μg/mL) (3-amino-7-dimethylamino-2-methylphenazine hydrochloride), was added to the cells for 3 hours. The uptake of NR by the cells was determined by lysing the cells and reading the absorbance at 540 nm in a Tecan microplate reader (TECAN Ltd, Männedorf, Switzerland)

The test system of assay [2] is Human HaCaT keratinocyte cells/mouse fibroblast cells. In words: ROS assay (DCFH-DA) after exposure to heavy metals, UVA or UVB. Format: cell-based. From the text: A cell permeable, non-fluorescent dye, 2′,7′-dichlorofluorescein diacetate (DCFH-DA) enters the cell and the acetate group on DCFH-DA is cleaved by cellular esterases, trapping the non-fluorescent DCFH inside the cell. Subsequent oxidation by reactive oxygen species generated in the cells, yields the fluorescent DCF which can be detected at 485/520 Ex:Em wavelength. The scavenging activity of sample is indicated by the decrease in fluorescence when compared to the control without antioxidant.
Human HaCaT keratinocyte cells/mouse fibroblast cells were maintained in DMEM containing 25 mM glucose with 10% heat-inactivated fetal calf serum with antibiotics at 37° C. and 5% CO2. When the cells were 70-80% confluent, they were trypsinized, washed and seeded in 96 well plates at a density seeded at a density of 5×10^4 cells/well. Cells were allowed to adhere for overnight. Cells were pretreated with varying non toxic concentrations of different plant actives for 60 minutes before exposing to the pollutant. Cells were exposed to the following pollutants in the presence of plant actives.
UVA intensity of 15 Joules/m2 for 60 mins,
UV-B intensity of 4.6 Joule/m2 for 10 mins
Heavy metals (Cobalt chloride and Lead Nitrate at 0.25 mm each) for 6 hours
Intracellular ROS was determined after the specific treatment period by adding freshly prepared DCFH-DA reagent to all the wells at a concentration of 10 μg/well and incubated at 37° C. for 30 mins. The fluorescence was recorded at a wavelength of 485:520 (Ex:Em) nm in BMG FluoStar Optima microplate reader.

Assay [3] has as its system superoxide dismutase (SOD). Briefly: Antioxidant assay: superoxide dismutase (SOD) activity in cell lysate, WST-1 method. The following applies: UV-exposed keratinocytes. Format: cell-based, Human. The protocol: (§1) Cellular anti-oxidants are depleted by pollutants. The ability of plant actives to increase these anti-oxidant enzymes in the cells was studied in vitro. Human HaCaT keratinocyte cells were seeded at a density of 5×10^5 cells, well in 6 well plates. The cells were pretreated for one hour with plant actives and exposed to UVA intensity of 17 Joules/m2 for 50 mins. Cells were washed with sterile buffer and fresh culture medium (2% of FBS) with respective concentrations of plant actives were added followed by incubation for 24 hours at 37° C. in a CO2 incubator. Cell lysate were prepared and superoxide dismutase (SOD) levels and glutathione peroxidase (GPx) were estimated.
The activity of SOD in the cell lysate was measured by WST-1 method using a kit as per the manufacturer's instructions (Elabsciences). Xanthine Oxidase (XO) can catalyze WST-1 react with O2. —to generate a water-soluble formazan dye. SOD can catalyze the disproportionation of superoxide anions, so the reaction can be inhibited by SOD, and the activity of SOD is negatively correlated with the amount of formazan dye. Therefore, the activity of SOD can be determined by the colorimetric analysis of WST-1 products.

Assay [4] concerns glutathione peroxidase (GPx). Briefly: Antioxidant assay: glutathione peroxidase (GPx) activity in cell lysate. Format: cell-based, Human. As to conditions: UV-exposed keratinocytes. The protocol:
as §1
Glutathione peroxidase activity was determined according to the method of Hafeman et al. (1974). Glutathione peroxidase degrades H2O2 in presence of glutathione (GSH) thereby depleting it. GSH remaining is measured using DTNB, which gives a colored complex.
To a volume of 100 μl of cell lysate, 0.2 mM GSH, 0.05 mM H2O2 and 1 mM NaN3 in a total volume of 250 μl with 1M sodium phosphate buffer (pH 7.0). The reaction was incubated at 37° C. for 10 min and stopped by adding 50 μl of 25% TCA. […] The intensity of yellow color formation was measured at 412 nm after incubation at 37° C. for 10 min The enzyme activity was expressed as units/mg protein.

The next assay concerns IL-8. Briefly: Anti-inflammatory activity: IL8 in assay supernatants by ELISA. Format: cell-based. On the procedure: IL8 in the assay supernatants were measured using Duoset ELISA kit (R & D systems, Cat No. DY208)
Assay [5] is described as follows: DPPH free radical scavenging assay. From the text:
Reactive oxygen species (ROS) including superoxide, hydroxyl, peroxyl, and alkoxy radicals are produced by normal metabolic processes. Under normal condition, these free radicals are scavenged by the cellular anti-oxidants and remain in equilibrium. Radiations, toxins and pollutants increase the ROS which can induce oxidative damage to biomolecules such as lipids, nucleic acids, proteins and carbohydrates. These ROS induced damage causes skin irritation, inflammation, ageing, cancer and many other diseases, α, α-diphenyl-β-picrylhydrazyl (DPPH) free radical scavenging method is one of the first approach for evaluating the antioxidant potential of a compound.
Reagents: 0.1 mM of DPPH in ethanol, 0.1M phosphate buffered saline (pH 7.4)
DPPH is a stable free radical in a methanolic solution with an absorbance at 520 nm. If the free radicals are scavenged by an anti oxidant molecule, the resulting solution appears yellow. The hydrogen atoms or electrons donation ability of the extracellular metabolite was measured by the bleaching of purple coloured DPPH methanol solution.
Different concentrations of various plant actives were diluted in methanol. For the DPPH radical scavenging assay, 20 μL of different concentration of sample was mixed with 180 μL of DPPH in methanol in a 96 well plate following the method as described earlier (Clarke et al., 2013). The plate was kept in the dark for 15 min. after which the absorbance of the solution was measured at 540 nm using a microplate reader (TECAN Ltd, Männedorf. Switzerland). Blanks (DMSO, methanol) and standard (TBHQ solution in methanol) were recorded simultaneously. The extracts were screened with variable concentrations to establish the inhibition concentration (IC50, the concentration reducing DPPH absorbance by 50%).
The free radical scavenging activity was calculated as follows.
[formula] Where, B=Absorbance of reference solution (OD of DPPH) C=Absorbance of reference solution blank (OD of Methanol only) S=Absorbance of test solution C=Absorbance of test solution blank

The test system of assay [6] is Collagenase Type IV from Clostridium histolyticum. In words: Anti-collagenase activity (DQ gelatin, fluorescence). Format: biochemical. From the text: Collagenase is one of the matrix metalloprotease, which digest collagen and other components of the extra cellular matrix (ECM). The ECM serves as a scaffold to stabilize the skin structure, and also helps in proliferation and metabolic functions of the skin cells. Loss of collagen leads to wrinkles and sagging of skin. The principle of the assay of collagenase inhibition is based on the fact that the substrate DQ™ gelatine is conjugated to fluorecein—a fluorescent compound. In DQ™ gelatine, fluorescence is quenched. DQ™ gelatine is efficiently digested by collagenases to yield a fluorescent compound which can be measured. The increase in fluorescence is proportional to enzyme activity. In the presence of an anti-collagenase compound the amount of fluorescence will be decreased for a fixed concentration of enzyme and substrate.
Collagenase Enzyme assay kit (Enzchek® collagenase, gelatinase assay kit, Invitrogen, USA)
The assay was performed in a 96 well black microtitre plate. Type IV from Clostridium histolyticum with DQ gelatin as substrate was used for the assay. Different concentrations of various plant actives were pre incubated with 20 µl of gelatin substrate (12.5 µg/ml). 100 µl of the Collagenase enzyme solution (final concentration—0.4 U/ml) was added and the fluorescence intensity was measured at […] after 30 minutes. Enzyme activity of control (buffer) was recorded
The percentage inhibition is calculated as follows:—
[formula] B—Fluorescence in the presence of enzyme. BC—Fluorescence in the absence of enzyme activity T—Fluorescence of enzyme activity in the presence of inhibitor TC—Fluorescence of the inhibitor alone

Regarding `COc1cc(/C=C/c2ccc(O)cc2)cc(OC)c1` [Pterostilbene, pterostilbene], the “% Protection against BaP” value in assay [1] (2.5 μgml) is “No activity”.

For `Oc1cc(O)cc(/C=C/c2ccc(O)cc2O)c1` [Oxyresveratrol, oxyresveratrol], the “protection against UVA+BaP” value in assay [1] (concentrations of 3.12-12.5 μg/ml) is reported as “dose dependant protection”. Further, in assay [1] (6.25 μg/ml), the “% Protection against BaP” value was 28.04%. Besides, the “ROS generated by exposure to UVA” value in assay [2] (UVA 60 mins) is “reduced the ROS”. The “ROS generated by exposure to UVB” value in assay [2] (UVB 10 mins) was “reduced the ROS”. In addition, the “ROS generated by exposure to heavy metals” value in assay [2] (heavy metals (cobalt chloride and lead nitrate) 6 hours) was “reduced the ROS”. In addition, the superoxide dismutase activity result in assay [3] is “restored normal enzyme activity”; in assay [3] (listed as 95% oxyresveratrol), “dose dependant increase”. The results for the glutathione peroxidase activity result in assay [4] and in assay [4] (listed as 95% oxyresveratrol) were “restored normal enzyme activity” and “dose dependant decrease”, respectively. This molecule also displayed an inhibition at 3.125 µg/mL with IL-8 (3.125 μg/ml) of 13.3%. This molecule displayed an inhibition at 6.25 µg/mL in the assay on IL-8 (6.25 μg/ml) of 18.4%. The “DPPH radical scavenging % inhibition” value in assay [5] (0.3125 μg/ml) is recorded as 22.9%; in assay [5] (0.625 μg/ml), 42.07%; in assay [5] (1.25 μg/ml), 68.63%; in assay [5] (2.5 μg/ml), 77.89%; in assay [5] (5.00 μg/ml), 84.14%. The “DPPH radical scavenging IC50” value in assay [5] (concentration reducing DPPH absorbance by 50%) was found to be 0.61 µg/mL. Moreover, the “Anti-collagenase activity % inhibition” value in assay [6] (12.5 μg/ml) turned out to be 0.05%; in assay [6] (25 μg/ml) it was 9.93%; in assay [6] (50 μg/ml), 41.19%; in assay [6] (100 μg/ml), 80.92%.

On to `COc1cc(CCC(=O)CC(=O)CCc2ccc(O)c(OC)c2)ccc1O` [Tetrahydrocurcumin, tetrahydrocurcumin], for which, in assay [1] (5 μg/ml), the “% Protection against BaP” value is given as “No activity”. Further, in the assay with IL-8 (read-out: % inhibition of IL-8), the inhibition at 12.5 µg/mL was 6.07% and the inhibition at 25 µg/mL is 11.7%.
